From patent US8932986B2, “Herbicidal composition” (Sumitomo Chemical Company, Limited, priority 2012, dated 2015)

Key:
Digitaria ciliaris [1] = assay: Herbicidal activity, soil spray on day of sowing, pot test in greenhouse, evaluated after seven days (Example 2); format: in vivo; conditions: 20 g/ha; sprayed on day of sowing; seven days after spray treatment; scale 0 to 100
Experimental: (§1) Digitaria ciliaris was sowed on a plastic pot filled with a soil. Following the sowing, on the day of the sowing, a mixed liquid of flumioxazin, pyrasulfotole, and mefenpyr-diethyl was sprayed uniformly so that the amounts of the agents might become those shown in Table 2 in a sprayed water amount of 500 L/ha. The mixed liquid of flumioxazin, pyrasulfotole, and mefenpyr-diethyl was prepared by dissolving the respective compounds in prescribed amounts separately in acetone containing 2% (w/v) of Tween 20 (surfactant, produced by Tokyo Chemical Industry Co., Ltd.), diluting the respective solutions with water and then combining them, followed by dilution with water so that the final acetone concentration of the spray liquid might be 10% by volume. After the spray treatment, the pot was carried into a greenhouse. Seven days after the spray treatment, the herbicidal activity to Digitaria ciliaris was evaluated.

Digitaria ciliaris [2] = assay: Herbicidal activity, soil spray on day of sowing, pot test in greenhouse, evaluated after ten days (Example 3); format: in vivo; conditions: 2 g/ha; sprayed on day of sowing; ten days after spray treatment; scale 0 to 100
Experimental: as §1, with “those as” for “those”, “Table 3” for “Table 2”, “greenhouse. Ten” for “greenhouse. Seven”

## C#CCN1C(=O)COc2cc(F)c(N3C(=O)C4=C(CCCC4)C3=O)cc21 [Flumioxazin]
Digitaria ciliaris [1]
  Herbicidal activity Digitaria ciliaris: 10
Digitaria ciliaris [2]
  Herbicidal activity Digitaria ciliaris: 40
